Data published in US20180186755A1, “LYSYL OXIDASE-LIKE 2 INHIBITORS AND USES THEREOF” (PharmAkea, Inc., priority 2015, published 2018).
Counter-ions that a name gives are not always drawn.

target: T1, human LOXL2 (Homo sapiens, UniProt Q9Y4K0); experiment: Human LOXL2 amine oxidase activity assay (Amplex Red fluorescence); type: biochemical; settings: concentrated conditioned media from CHO cells stably expressing human LOXL2; 2 h at 37° C. preincubation; DAP substrate
T1 construct: expressed in transfected cells; 10-20x concentrated conditioned media used as the enzyme source
T1 sequence (Q9Y4K0 26-774): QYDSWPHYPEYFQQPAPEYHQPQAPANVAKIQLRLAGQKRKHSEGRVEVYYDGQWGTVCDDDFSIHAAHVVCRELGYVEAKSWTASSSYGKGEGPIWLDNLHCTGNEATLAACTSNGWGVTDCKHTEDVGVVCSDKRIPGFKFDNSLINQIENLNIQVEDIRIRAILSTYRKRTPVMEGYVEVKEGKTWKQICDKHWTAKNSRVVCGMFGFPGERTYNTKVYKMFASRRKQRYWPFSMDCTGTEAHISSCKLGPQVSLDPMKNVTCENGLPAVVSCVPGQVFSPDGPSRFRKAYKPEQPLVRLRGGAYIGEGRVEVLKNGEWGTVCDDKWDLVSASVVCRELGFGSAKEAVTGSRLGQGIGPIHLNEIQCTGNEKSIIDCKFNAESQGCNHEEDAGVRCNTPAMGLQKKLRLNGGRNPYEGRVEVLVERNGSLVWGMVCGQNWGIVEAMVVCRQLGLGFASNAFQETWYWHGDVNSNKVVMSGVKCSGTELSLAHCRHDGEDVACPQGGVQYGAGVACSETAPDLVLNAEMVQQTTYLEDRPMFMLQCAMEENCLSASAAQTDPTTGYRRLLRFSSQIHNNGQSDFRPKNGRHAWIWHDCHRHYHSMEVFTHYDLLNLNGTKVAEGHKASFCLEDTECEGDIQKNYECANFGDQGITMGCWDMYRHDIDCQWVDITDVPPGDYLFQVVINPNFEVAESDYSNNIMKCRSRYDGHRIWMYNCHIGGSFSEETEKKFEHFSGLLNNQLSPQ
Description: Example B-1: Human LOXL2 Amine Oxidase Activity Assay
LOXL2 amine oxidase activity is evaluated by measuring Amplex Red fluorescence using 10-20× concentrated conditioned media from CHO cells stably expressing human LOXL2.
To assay for amine oxidase activity, 10 μL of the concentrated conditioned media is incubated with 2 μL of test compound in DMSO and 73 μL Assay Buffer (50 mM Borate Buffer, pH8) for 2 h at 37° C. After the 2 h incubation, 5 ul of 10 mM 1,5-Diaminopentane (DAP) diluted in Assay Buffer and 10 μl of Amplex Red Mix (8.5 μl Assay Buffer+0.5 μl of 10 mM Amplex Red+1 μl of 500 U/ml Horseradish Peroxidase) are added and the plate mixed and immediately placed on the FlexStaion for fluorescence measurements. Fluorescence is read in kinetic mode every 2 min for 1 hour at excitation=544 and emission=590. The amine oxidase activity is calculated from the slope of the linear portion of the curve.

Question: With NCc1cc(Oc2cccc(C(=O)NCc3ccccc3)c2)ncn1 [Compound 1-56, 3-((6-(Aminomethyl)pyrimidin-4-yl)oxy)-N-benzylbenzamide] as the compound, how does the IC50 read?
Answer: The IC50 was < 100 nM.

Question: Which IC50 does the source give for NCc1cc(NCc2cccc(C(=O)Nc3ccc(C(=O)O)cc3)c2)ncn1 [Compound 1-44, 4-(3-(((6-(Aminomethyl)pyrimidin-4-yl)amino)methyl)benzamido)benzoic acid] here?
Answer: The IC50 was 100 to 1000 nM.

Question: With COc1ccc(Cn2ccc3cc(Oc4cc(CN)ncn4)ccc32)cn1 [Compound 1-29, (6-((1-((6-Methoxypyridin-3-yl)methyl)-1H-indol-5-yl)oxy)pyrimidin-4-yl)methanamine] as the compound, how does the IC50 read?
Answer: The IC50 was < 100 nM.

Question: For NCc1cc(Oc2ccc(F)cc2)ncn1 [Compound 1-1, (6-(4-Fluorophenoxy)pyrimidin-4-yl)methanamine trifluoroacetate], which IC50 is on record?
Answer: Its IC50 is < 100 nM.

Question: NCc1cc(Oc2cccc(C(=O)N3CCN(c4ccccn4)CC3)c2)ncn1 [Compound 1-58, (3-((6-(Aminomethyl)pyrimidin-4-yl)oxy)phenyl)(4-(pyridin-2-yl)piperazin-1-yl)methanone] was tested. Which IC50 did it give?
Answer: The IC50 was < 100 nM.

Question: With Cn1c(CNC(=O)c2cccc(COc3cc(CN)ncn3)c2)cc2ccccc21 [Compound 1-86, 3-(((6-(Aminomethyl)pyrimidin-4-yl)oxy)methyl)-N-((1-methyl-1H-indol-2-yl)methyl)benzamide] as the compound, how does the IC50 read?
Answer: Its IC50 is < 100 nM.

Question: CS(=O)(=O)CCn1ccc2c(Oc3cc(CN)ncn3)cccc21 [Compound 1-25, (6-((1-(2-(Methylsulfonyl)ethyl)-1H-indol-4-yl)oxy)pyrimidin-4-yl)methanamine] was tested. Which IC50 did it give?
Answer: Its IC50 is < 100 nM.

Question: How did the IC50 turn out when NCc1cc(OCc2cccc(C(=O)NCCN3CCOC3=O)c2)ncn1 [Compound 1-38, 3-(((6-(Aminomethyl)pyrimidin-4-yl)oxy)methyl)-N-(2-(2-oxooxazolidin-3-yl)ethyl)benzamide] was run?
Answer: Its IC50 is < 100 nM.

Question: How did the IC50 turn out when Cn1c(CNC(=O)c2cccc(Oc3cc(CN)ncn3)c2)cc2ccccc21 [Compound 1-66, 3-((6-(Aminomethyl)pyrimidin-4-yl)oxy)-N-((1-methyl-1H-indol-2-yl)methyl)benzamide] was run?
Answer: Its IC50 is < 100 nM.

Question: How did the IC50 turn out when NCc1cc(Oc2cccc3c2ccn3C2COC2)ncn1 [Compound 1-49, (6-((1-(Oxetan-3-yl)-1H-indol-4-yl)oxy)pyrimidin-4-yl)methanamine] was run?
Answer: Its IC50 is 100 to 1000 nM.

Question: With NCc1cc(Oc2cccc(C(=O)Nc3ccccc3)c2)ncn1 [Compound 1-3, 3-((6-(Aminomethyl)pyrimidin-4-yl)oxy)-N-phenylbenzamide hydrochloride] as the compound, how does the IC50 read?
Answer: The IC50 was < 100 nM.

Question: NCc1cc(Oc2ccc3[nH]ccc3c2)ncn1 [Compound 1-18, (6-((1H-Indol-5-yl)oxy)pyrimidin-4-yl)methanamine trifluoroacetate] was tested. Which IC50 did it give?
Answer: The IC50 was < 100 nM.

Question: Which IC50 does the source give for NCc1cc(N2CCC(C(=O)Nc3ccccc3)CC2)ncn1 [Compound 1-103, 1-(6-(Aminomethyl)pyrimidin-4-yl)-N-phenylpiperidine-4-carboxamide] here?
Answer: Its IC50 is 100 to 1000 nM.

Question: For NCc1cc(Oc2cccc(C(=O)NCCC(=O)O)c2)ncn1 [Compound 1-7, 3-(3-((6-(Aminomethyl)pyrimidin-4-yl)oxy)benzamido)propanoic Acid Hydrochloride], which IC50 is on record?
Answer: Its IC50 is 100 to 1000 nM.

Question: How did the IC50 turn out when COC(=O)Cn1ccc2c(Oc3cc(CN)ncn3)cccc21 [Compound 1-21, Methyl 2-(4-((6-(aminomethyl)pyrimidin-4-yl)oxy)-1H-indol-1-yl)acetate] was run?
Answer: The IC50 was < 100 nM.

Question: How did the IC50 turn out when NCc1cc(Nc2cccc(C(=O)Nc3ccccc3)c2)ncn1 [Compound 1-42, 3-((6-(Aminomethyl)pyrimidin-4-yl)amino)-N-phenylbenzamide] was run?
Answer: The IC50 was < 100 nM.

Question: With NCc1cc(Oc2cccc(C(=O)NCc3nc4ccccc4o3)c2)ncn1 [Compound 1-68, 3-((6-(Aminomethyl)pyrimidin-4-yl)oxy)-N-(benzo[d]oxazol-2-ylmethyl)benzamide] as the compound, how does the IC50 read?
Answer: Its IC50 is < 100 nM.

Question: How did the IC50 turn out when CC(Oc1cc(CN)ncn1)c1cccc(C(=O)Nc2ccccc2)c1 (racemic) [Compound 1-95, Racemic-3-(1-((6-(aminomethyl)pyrimidin-4-yl)oxy)ethyl)-N-phenylbenzamide] was run?
Answer: The IC50 was 100 to 1000 nM.

Question: COc1ccc(Cn2c(C)cc3c(Oc4cc(CN)ncn4)cccc32)cn1 [Compound 1-30, (6-((1-((6-Methoxypyridin-3-yl)methyl)-2-methyl-1H-indol-4-yl)oxy)pyrimidin-4-yl)methanamine] was tested. Which IC50 did it give?
Answer: Its IC50 is < 100 nM.

Question: Which IC50 does the source give for Cc1n[nH]c2c1CN(C(=O)c1cccc(Oc3cc(CN)ncn3)c1)CC2 [Compound 1-70, (3-((6-(Aminomethyl)pyrimidin-4-yl)oxy)phenyl)(3-methyl-6,7-dihydro-1H-pyrazolo[4,3-c]pyridin-5(4H)-yl)methanone] here?
Answer: Its IC50 is < 100 nM.

Question: How did the IC50 turn out when NCc1cc(N2CCN(C(=O)c3ccccc3)CC2)ncn1 [Compound 1-104, (4-(6-(Aminomethyl)pyrimidin-4-yl)piperazin-1-yl)(phenyl)methanone] was run?
Answer: Its IC50 is > 1000 nM.

Question: How did the IC50 turn out when NCc1cc(Oc2cccc(C(=O)NCc3ccc(C(=O)O)cc3)c2)ncn1 [Compound 1-5, 4-((3-((6-(Aminomethyl)pyrimidin-4-yl)oxy)benzamido)methyl)benzoic Acid Hydrochloride] was run?
Answer: The IC50 was < 100 nM.

Question: Which IC50 does the source give for NCc1cc(Oc2cccc(C(=O)NCc3cc4ccccc4[nH]3)c2)ncn1 [Compound 1-53, N-((1H-Indol-2-yl)methyl)-3-((6-(aminomethyl)pyrimidin-4-yl)oxy)benzamide] here?
Answer: Its IC50 is < 100 nM.

Question: How did the IC50 turn out when NCc1cc(OCc2cccc(C(=O)NCc3nc4ccccc4o3)c2)ncn1 [Compound 1-83, 3-(((6-(Aminomethyl)pyrimidin-4-yl)oxy)methyl)-N-(benzo[d]oxazol-2-ylmethyl)benzamide] was run?
Answer: Its IC50 is < 100 nM.

Question: Which IC50 does the source give for NCc1cc(N2CCN(C(=O)Cc3ccccc3)CC2)ncn1 [Compound 1-106, 1-(4-(6-(Aminomethyl)pyrimidin-4-yl)piperazin-1-yl)-2-phenylethanone] here?
Answer: The IC50 was 100 to 1000 nM.

Question: NCc1cc(N2CC[C@@H](C(=O)Nc3ccccc3)C2)ncn1 [Compound 1-102, (R)-1-(6-(Aminomethyl)pyrimidin-4-yl)-N-phenylpyrrolidine-3-carboxamide] was tested. Which IC50 did it give?
Answer: The IC50 was 100 to 1000 nM.

Question: NCc1cc(Oc2cccc(Oc3ccccc3)c2)ncn1 [Compound 1-2, (6-(3-Phenoxyphenoxy)pyrimidin-4-yl)methanamine hydrochloride] was tested. Which IC50 did it give?
Answer: The IC50 was < 100 nM.

Question: For CS(=O)(=O)CCNC(=O)c1cccc(COc2cc(CN)ncn2)c1 [Compound 1-37, 3-(((6-(Aminomethyl)pyrimidin-4-yl)oxy)methyl)-N-(2-(methylsulfonyl)ethyl)benzamide], which IC50 is on record?
Answer: Its IC50 is < 100 nM.

Question: NCc1cc(Oc2cccc(C(=O)NCCS(N)(=O)=O)c2)ncn1 [Compound 1-13, 3-((6-(Aminomethyl)pyrimidin-4-yl)oxy)-N-(2-sulfamoylethyl)benzamide hydrochloride] was tested. Which IC50 did it give?
Answer: Its IC50 is < 100 nM.

Question: NCc1cc(OCc2cccc(C(=O)N[C@@H](CO)c3ccccc3)c2)ncn1 [Compound 1-78, (R)-3-(((6-(Aminomethyl)pyrimidin-4-yl)oxy)methyl)-N-(2-hydroxy-1-phenylethyl)benzamide] was tested. Which IC50 did it give?
Answer: Its IC50 is < 100 nM.

Question: For NCc1cc(Oc2cccc(C(=O)NCc3sc4ccccc4c3Cl)c2)ncn1 [Compound 1-64, 3-((6-(Aminomethyl)pyrimidin-4-yl)oxy)-N-((3-chlorobenzo[b]thiophen-2-yl)methyl)benzamide], which IC50 is on record?
Answer: Its IC50 is < 100 nM.

Question: NCc1cc(OCc2cccc(C(=O)NCc3ccnc(Cl)c3)c2)ncn1 [Compound 1-80, 3-(((6-(Aminomethyl)pyrimidin-4-yl)oxy)methyl)-N-((2-chloropyridin-4-yl)methyl)benzamide] was tested. Which IC50 did it give?
Answer: Its IC50 is < 100 nM.

Question: How did the IC50 turn out when CS(=O)(=O)CCN1C(=O)CCc2c(Oc3cc(CN)ncn3)cccc21 [Compound 1-47, 5-((6-(Aminomethyl)pyrimidin-4-yl)oxy)-1-(2-(methylsulfonyl)ethyl)-3,4-dihydroquinolin-2(1H)-one] was run?
Answer: Its IC50 is < 100 nM.

Question: With NCc1cc(Oc2cccc3c2CCC(=O)N3CCO)ncn1 [Compound 1-15, (5-((6-(Aminomethyl)pyrimidin-4-yl)oxy)-1-(2-hydroxyethyl)-3,4-dihydroquinolin-2(1H)-one hydrochloride] as the compound, how does the IC50 read?
Answer: The IC50 was < 100 nM.

Question: For NCc1cc(Oc2cccc(C(=O)NCc3cc4cc(F)ccc4[nH]3)c2)ncn1 [Compound 1-65, 3-((6-(Aminomethyl)pyrimidin-4-yl)oxy)-N-((5-fluoro-1H-indol-2-yl)methyl)benzamide], which IC50 is on record?
Answer: The IC50 was < 100 nM.

Question: COc1ccc(CN2C(=O)CCc3c(Oc4cc(CN)ncn4)cccc32)cn1 [Compound 1-16, 5-((6-(Aminomethyl)pyrimidin-4-yl)oxy)-1-((6-methoxypyridin-3-yl)methyl)-3,4-dihydroquinolin-2(1H)-one acetate] was tested. Which IC50 did it give?
Answer: The IC50 was < 100 nM.
